This experiment deals with NR1/NR2C (Rattus norvegicus, UniProt P35439+Q00961). The experiment in a line: Two electrode voltage clamp recording from Xenopus laevis oocytes. The following applies: read-out: EC50 for glutamate. The experiment is classed as cell-based. A general note: In two-electrode clamp one electrode senses voltage and the other passes current.
NR1/NR2C, sequence (Q00961 20-1237, other chains not shown): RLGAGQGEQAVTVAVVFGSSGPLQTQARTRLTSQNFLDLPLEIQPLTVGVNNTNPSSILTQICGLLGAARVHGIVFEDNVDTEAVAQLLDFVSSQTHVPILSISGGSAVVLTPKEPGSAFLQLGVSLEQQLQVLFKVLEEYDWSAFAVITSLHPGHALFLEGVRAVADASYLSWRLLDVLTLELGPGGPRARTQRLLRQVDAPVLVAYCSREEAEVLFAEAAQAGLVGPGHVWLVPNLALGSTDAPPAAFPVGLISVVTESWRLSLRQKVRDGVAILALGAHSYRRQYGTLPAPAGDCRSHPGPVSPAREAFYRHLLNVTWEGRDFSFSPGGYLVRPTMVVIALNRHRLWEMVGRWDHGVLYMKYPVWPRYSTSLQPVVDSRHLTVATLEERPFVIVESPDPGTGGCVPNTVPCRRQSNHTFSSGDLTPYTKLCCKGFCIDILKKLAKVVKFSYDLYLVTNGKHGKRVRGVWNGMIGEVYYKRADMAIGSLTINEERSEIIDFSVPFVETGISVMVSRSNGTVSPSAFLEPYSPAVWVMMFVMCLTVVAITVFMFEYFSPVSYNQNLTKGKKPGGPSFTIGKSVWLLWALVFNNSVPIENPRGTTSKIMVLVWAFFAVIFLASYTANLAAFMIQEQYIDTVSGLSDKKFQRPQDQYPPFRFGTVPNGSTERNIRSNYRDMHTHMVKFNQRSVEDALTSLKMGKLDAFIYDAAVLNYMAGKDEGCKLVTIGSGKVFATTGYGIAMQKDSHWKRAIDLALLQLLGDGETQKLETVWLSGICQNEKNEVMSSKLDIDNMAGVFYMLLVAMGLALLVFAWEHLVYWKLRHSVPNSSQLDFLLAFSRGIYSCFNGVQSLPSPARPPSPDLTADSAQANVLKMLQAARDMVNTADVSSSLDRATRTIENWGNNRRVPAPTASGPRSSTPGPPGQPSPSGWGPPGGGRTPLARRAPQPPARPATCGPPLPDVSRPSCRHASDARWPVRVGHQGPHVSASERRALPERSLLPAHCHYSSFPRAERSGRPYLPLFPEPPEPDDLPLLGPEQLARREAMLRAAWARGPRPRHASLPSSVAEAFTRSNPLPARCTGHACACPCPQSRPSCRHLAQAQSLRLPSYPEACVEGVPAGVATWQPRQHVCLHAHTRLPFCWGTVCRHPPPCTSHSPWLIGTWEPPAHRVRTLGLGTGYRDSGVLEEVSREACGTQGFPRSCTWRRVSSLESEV

Consider `N[C@@H](CCC(=O)O)C(=O)O` [glutamate], for which the 50% effective concentration (EC50) amounted to 420 ± 40 nM.

For orientation: EC50 means the concentration giving half of the maximal effect.

The values above are taken from article PMC2862277 (The Journal of neuroscience : the official journal of the …, 2010).
